Reference: patent publication US20220306617A1, “SUBSTITUTED 1,3-PHENYL HETEROARYL DERIVATIVES AND THEIR USE IN THE TREATMENT OF DISEASE” (NOVARTIS AG, priority 2019, published 2022)

Biological target: T1, abc isoform of human TMEM16A channel expressed in CHO cells (Homo sapiens, UniProt Q5XXA6, DEL476-501)
T1 construct: expressed in transfected cells; host or cells: CHO cells, doxycycline-inducible expression under Blasticidin/Zeocin selection
T1 sequence (Q5XXA6 with tags, fused parts or gaps isoform Q5XXA6-5 DEL539-564): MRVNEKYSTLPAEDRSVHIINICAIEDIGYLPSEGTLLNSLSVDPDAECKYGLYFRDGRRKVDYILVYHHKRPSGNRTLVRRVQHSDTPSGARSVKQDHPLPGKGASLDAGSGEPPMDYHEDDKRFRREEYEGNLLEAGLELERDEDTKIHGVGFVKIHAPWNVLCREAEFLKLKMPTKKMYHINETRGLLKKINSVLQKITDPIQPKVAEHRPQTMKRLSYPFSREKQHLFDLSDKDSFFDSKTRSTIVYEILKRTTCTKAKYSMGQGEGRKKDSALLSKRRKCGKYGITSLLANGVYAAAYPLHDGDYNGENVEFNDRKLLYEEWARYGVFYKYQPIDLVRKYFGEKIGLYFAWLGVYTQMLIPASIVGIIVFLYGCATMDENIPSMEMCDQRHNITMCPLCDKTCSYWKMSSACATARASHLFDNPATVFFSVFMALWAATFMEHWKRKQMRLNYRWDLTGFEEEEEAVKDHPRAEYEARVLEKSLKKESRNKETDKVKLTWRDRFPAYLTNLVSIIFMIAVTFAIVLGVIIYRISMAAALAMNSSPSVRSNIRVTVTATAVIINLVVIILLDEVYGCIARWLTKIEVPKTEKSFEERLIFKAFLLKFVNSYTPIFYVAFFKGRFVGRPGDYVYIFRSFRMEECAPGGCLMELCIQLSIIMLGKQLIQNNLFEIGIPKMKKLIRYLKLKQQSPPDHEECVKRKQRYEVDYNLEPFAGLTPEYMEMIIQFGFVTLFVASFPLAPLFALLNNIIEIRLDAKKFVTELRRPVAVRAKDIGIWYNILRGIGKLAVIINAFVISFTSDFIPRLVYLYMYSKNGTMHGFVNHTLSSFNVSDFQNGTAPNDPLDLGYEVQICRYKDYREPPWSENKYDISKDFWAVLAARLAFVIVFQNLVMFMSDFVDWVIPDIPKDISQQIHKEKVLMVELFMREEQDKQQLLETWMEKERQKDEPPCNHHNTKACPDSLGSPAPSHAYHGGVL
Experiment: Automated patch clamping (QPatch) assay to measure TMEM16A activity in whole-cell
Type: cell-based
Conditions: for EC50: CHO cells expressing human TMEM16A (abc), whole-cell automated patch clamp, Hill fit, read-out: TMEM16A QPATCH assay EC50 V3 EC50; for Emax: CHO, maximum current at highest dose relative to reference potentiator at maximal concentration (upper limit) and vehicle (lower limit), read-out: TMEM16A QPATCH assay EC50 V3 Assay Window (% TMEM16A max activation)
Method in brief: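 CHO cells with doxycycline-induced (1 μg/mL, 18-24 h) human TMEM16A abc isoform; QPatch whole-cell recording, hold −70 mV, step +70 mV 1500 ms, then −90 to +70 mV ramp. Compounds in 0.3% DMSO; EC50 by Hill fit; % max activation relative to vehicle baseline and reference potentiator maximum.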

Row | Compound | EC50 | Emax
1 | CCOC(=O)[C@@H](NC(=O)c1cnc(-c2cccc(-c3cc(C(=O)N[C@@H](C)C4CC4)n[nH]3)c2)o1)C(C)C [Example 1.0, (S)-Ethyl 2-(2-(3-(3-(((S)-1-Cyclopropylethyl)Carbamoyl)-1H-Pyrazol-5-Yl)Phenyl)Oxazole-5-Carboxamido)-3-Methylbutanoate] | 40 nM | 79%
2 | CCC(CC)NC(=O)c1cnc(-c2cccc(-c3cc(C(=O)N[C@@H](C)C4CCCCC4)n[nH]3)c2)o1 [Example 3.49, (S)-2-(3-(3-((1-Cyclohexylethyl)Carbamoyl)-1H-Pyrazol-5-Yl)Phenyl)-N-(Pentan-3-Yl)Oxazole-5-Carboxamide] | 170 nM | 72%
3 | CCC(CC)NC(=O)c1cc(-c2cccc(-c3ncc(C(=O)NC4CCCC4)o3)c2)[nH]n1 [Example 1.2] | 800 nM | 83%
4 | CCC(CC)NC(=O)c1cc(-c2cccc(-c3ncc(C(=O)N[C@H](C)C4CCCCC4)o3)c2)[nH]n1 [Example 1.42, (R)-N-(1-Cyclohexylethyl)-2-(3-(3-(Pentan-3-Ylcarbamoyl)-1 H-Pyrazol-5-yl)Phenyl)Oxazole-5-Carboxamide] | 750 nM | 72%
5 | CCC(CC)NC(=O)c1cnc(-c2cccc(-c3cc(C(=O)NC(COC)C(C)C)n[nH]3)c2)o1 (stereo not drawn) [Example 3.36, 2-(3-(3-((1-Methoxy-3-Methylbutan-2-Yl)Carbamoyl)-1H-Pyrazol-5-Yl)Phenyl)-N-(Pentan-3-Yl)Oxazole-5-Carboxamide] | 190 nM | 97%
6 | CCC(CC)NC(=O)c1cnc(-c2cccc(-c3cc(C(=O)N[C@@H](C)c4ccccc4)n[nH]3)c2)o1 [Example 3.38, (S)-N-(Pentan-3-Yl)-2-(3-(3-((1-Phenylethyl)Carbamoyl)-1H-Pyrazol-5-yl)Phenyl)Oxazole-5-Carboxamide] | 150 nM | 100%
7 | CCC(CC)NC(=O)c1cc(-c2cccc(-c3ncc(C(=O)N[C@H](C(=O)OC)c4ccccc4)o3)c2)[nH]n1 [Example 1.15, (S)-Methyl 2-(2-(3-(3-(Pentan-3-Ylcarbamoyl)-1H-Pyrazol-5-yl)Phenyl)Oxazole-5-Carboxamido)-2-Phenylacetate] | 410 nM | 100%

More lines, in order of falling EC50, values ahead:

Row | EC50 | Emax | Compound
8 | 990 nM | 19% | CCC(CC)NC(=O)c1cc(-c2cccc(-c3ncc(C(=O)N[C@H](C)C(C)C)o3)c2)[nH]n1 [Example 1.46, (R)-N-(3-Methylbutan-2-Yl)-2-(3-(3-(Pentan-3-Ylcarbamoyl)-1 H-Pyrazol-5-yl)Phenyl)Oxazole-5-Carboxamide]
9 | 440 nM | 175% | CCOC(=O)[C@@H](NC(=O)c1cc(-c2cccc(-c3ncc(C(=O)NC(CC)CC)o3)c2)nn1CCN1CCOCC1)C(C)C [Example 7.0, (S)-Ethyl 3-Methyl-2-(1-(2-Morpholinoethyl)-3-(3-(5-(Pentan-3-Ylcarbamoyl)Oxazol-2-Yl)Phenyl)-1H-Pyrazole-5-Carboxamido)Butanoate]
10 | 220 nM | 92% | COC(=O)[C@@H](NC(=O)c1cnc(-c2cccc(-c3nnc(C(=O)N[C@@H](C)C4CC4)[nH]3)c2)o1)C(C)C [Example 12.3, (S)-Methyl 2-(2-(3-(5-(((S)-1-Cyclopropylethyl)Carbamoyl)-4H-1,2,4-Triazol-3-Yl)Phenyl)Oxazole-5-Carboxamido)-3-Methylbutanoate]
11 | 200 nM | 106% | CCC(CC)NC(=O)c1cnc(-c2cccc(-c3cc(C(=O)N[C@@H](C)C4CC4)n(CC(C)(C)O)n3)c2)o1 [Example 8.0, (S)-2-(3-(5-((1-Cyclopropylethyl)Carbamoyl)-1-(2-Hydroxy-2-Methylpropyl)-1H-Pyrazol-3-Yl)Phenyl)-N-(Pentan-3-Yl)Oxazole-5-Carboxamide]
12 | 190 nM | 92% | CC(C)OC(=O)[C@@H](NC(=O)c1cnc(-c2cccc(-c3nnc(C(=O)N[C@@H](C)C4CC4)[nH]3)c2)o1)C(C)C [Example 12.12]
